Data from US7902354B2, “Lapachone compounds and methods of use thereof” (ArQule, Inc., priority 2006, dated 2011).

What was measured:
Assay type in all cases: cell-based
[1] = system: DU-145 human prostate carcinoma cells; test: MTS cell viability assay, DU-145 human prostate carcinoma cells; conditions: DU-145, 4 h compound incubation, MTS, read-out: IC50 Values, Cancerous Cells, Prostate DU-145
[2] = system: DLD-1 human colon carcinoma cells; test: MTS cell viability assay, DLD-1 human colon carcinoma cells; conditions: DLD-1, 4 h compound incubation, MTS, read-out: IC50 Values, Cancerous Cells, Colon DLD-1
[3] = system: K-562 human leukemia cells; test: MTS cell viability assay, K-562 human leukemia cells; conditions: K562, K-562, 4 h compound incubation, MTS, read-out: IC50 Values, Cancerous Cells, Leukemia K-562
[4] = system: NCM-460 normal colon epithelial cells; test: MTS cell viability assay, NCM-460 normal colon epithelial cells; conditions: for IC50: Homo sapiens, NCM460, NCM-460, 4 h compound incubation, MTS, read-out: IC50 Values, Normal Cells, Colon NCM-460; for Fold Selectivity (NCM-460/DLD1): ratio of IC50 NCM-460 / DLD1
[5] = system: PACA-2 human pancreatic carcinoma cells; test: MTS cell viability assay, PACA-2 human pancreatic carcinoma cells; conditions: PACA-2, 4 h compound incubation, MTS, read-out: IC50 Values, Cancerous Cells, Pancreas PACA-2
[6] = system: A549 human lung carcinoma cells; test: MTS cell viability assay, A549 human lung carcinoma cells; conditions: A549, 4 h compound incubation, MTS, read-out: IC50 Values, Cancerous Cells, Lung A549

| Structure (SMILES) | IC50 [1] | IC50 [2] | IC50 [3] | IC50 [4] | Fold Selectivity (NCM-460/DLD1) [4] | IC50 [5] | IC50 [6] |
| --- | --- | --- | --- | --- | --- | --- | --- |
| O=C1C(=O)c2ccccc2C2=C1SCC1(CCN(C3C=CCCC3)CC1)O2 (stereo not shown) [Compound 135, 1′-cyclohex-2-en-1-ylspiro[naphtho[1,2-b][1,4]oxathiine-2,4′-piperidine]-5,6-dione] | 5.07 µM | 4.89 µM | 4.02 µM | 8.35 µM | 1.7 | 7.42 µM | 19.2 µM |
| O=C1C(=O)c2ccccc2C2=C1SCC1(CCN(CC3CCCCC3)CC1)O2 [Compound 136, 1′-(cyclohexylmethyl)spiro[naphtho[1,2-b][1,4]oxathiine-2,4′-piperidine]-5,6-dione] | 4.32 µM | 2.95 µM | 4.34 µM | 8.7 µM | 2.9 | 4.13 µM | 9.6 µM |
| CC(c1ccccc1)N1CCC2(CC1)CSC1=C(O2)c2ccccc2C(=O)C1=O (stereo not shown) [Compound 137, 1′-(1-phenylethyl)spiro[naphtho[12-b][1,4]oxathiine-2,4′-piperidine]-5,6-dione] | 4.32 µM | 4.08 µM | 4.25 µM | 10 µM | 2.5 | 4.12 µM | 8.27 µM |
| O=C1C(=O)c2ccccc2C2=C1SCC1(CCN(C3CCCC3)CC1)O2 [Compound 138, 1′-cyclopentylspiro[naphtho[1,2-b][1,4]oxathiine-2,4′-piperidine]-5,6-dione] | 2.52 µM | 1.43 µM | 1.43 µM | 3.55 µM | 2.5 | 1.48 µM | 7.8 µM |
| O=C1C(=O)c2ccccc2C2=C1SCC1(CCN(C/C=C/c3ccccc3)CC1)O2 [Compound 139, 1′-[(2E)-3-phenylprop-2-en-1-yl]spiro[naphtho[1.2-b][1,4]oxathiine-2,4′-piperidine]-5,6-dione] | 4.42 µM | 4.32 µM | 4.8 µM | 19.5 µM | 4.5 | 4.17 µM | 27.8 µM |
| O=C1C(=O)c2ccccc2C2=C1SCC1(CCN(CCOc3ccccc3)CC1)O2 [Compound 140, 1′-(2-phenoxyethyl)spiro[naphtho[1,2-b][1,4]oxathiine-2,4′-piperidine]-5,6-dione] | 4.2 µM | 3.37 µM | 4.26 µM | 12.2 µM | 3.6 | 3.93 µM | 21.5 µM |
| O=C1C(=O)c2ccccc2C2=C1SCC1(CCN(CCCC(F)(F)F)CC1)O2 [Compound 141, 1′-(4,4,4-trifluorobutyl)spiro[naphtho[1,2-b][1,4]oxathiine-2,4′-piperidine]-5,6-dione] | 4.01 µM | 1.95 µM | 2.39 µM | 8.13 µM | 4.2 | 2.44 µM | 5.01 µM |
| O=C1C(=O)c2ccccc2C2=C1SCC1(CCN(Cc3ccc(F)c(Cl)c3)CC1)O2 [Compound 142, 1′-(3-chloro-4-fluorobenzyl)spiro[naphtho[1,2-b][1,4]oxathiine-2,4′-piperidine]-5,6-dione] | 6.93 µM | 4.25 µM | 8.72 µM | 15.1 µM | 3.6 | 10.5 µM | 44.2 µM |
| C=CCCN1CCC2(CC1)CSC1=C(O2)c2ccccc2C(=O)C1=O [Compound 143, 1′-but-3-en-1-ylspiro[naphtho[1,2-b][1,4]oxathiine-2,4′-piperidine]-5,6-dione] | 4.26 µM | 2.14 µM | 3.29 µM | 6.39 µM | 3.0 | 2.5 µM | 7.39 µM |
| O=C1C(=O)c2ccccc2C2=C1SCC1(CCN(CCCOc3ccccc3)CC1)O2 [Compound 144, 1′-(3-phenoxypropyl)spiro[naphtho[1,2-b][1,4]oxathiine-2,4′-piperidine]-5,6-dione] | 4.91 µM | 2.17 µM | 4.32 µM | 9.9 µM | 4.6 | 2.82 µM | 8.19 µM |
